# Values quoted from earlier work, collected in patent US4380639A, “Substituted 1,2,5-thiadiazole derivatives” (Bristol-Myers Company, priority 1981, dated 1983).
# Columns and labels:
# peptic ulcer disease = conditions: clinical evaluation, Gray et al., Lancet 1977
# [1] = in vivo
oral absorption [1],Compound,H2 -antagonist potency/effectiveness relative to comparator (H2 -receptor),therapeutic effectiveness in peptic ulcer disease (peptic ulcer disease)
–,CNC(=S)NCCSCc1[nH]cnc1C [Metiamide],more potent than burimamide,–
–,CNC(=NC#N)NCCSCc1[nH]cnc1C [Cimetidine],as effective an H2 -antagonist as metiamide,effective therapeutic agent in the treatment of peptic ulcer disease
oral absorption is poor,CNC(=S)NCCCCc1cnc[nH]1 [Burimamide],–,–
